Measurements as given in ChEMBL document CHEMBL4739717, “Methods of treating cartilage disorders through inhibition of clk and dyrk” (2020).
pEC50: −log10 of the molar value.

Legend:
[1] = Induction of chondrogenesis in human MSC assessed as incubated for 6 days by rhodamine B and Nile red staining based imaging analysis; type: functional; conditions: bmmsc
[2] = Effect on Wnt signaling pathway in human SW480 cells harbouring TCF/LEF luciferase reporter gene and SP5-Luc reporter gene incubated for 36 to 48 hrs by luminescence assay; type: cell-based
[3] = target: Dual specificity tyrosine-phosphorylation-regulated kinase 1A (Homo sapiens, UniProt Q13627); assay: Inhibition of recombinant DYRK1A (unknown origin) using Ser/Thr 18 peptide as substrate incubated for 1 hr in presence of ATP by FRET assay
[4] = Induction of chondrogenesis in human MSC assessed as maximum activity at 10 nM incubated for 6 days by rhodamine B and Nile red staining based imaging analysis relative to control; type: functional; conditions: BMMSC, 144 h, time 6 day
[5] = Inhibition of IL1-beta induced MMP3 expression levels in human chondrocytes assessed as MMP3 levels incubated for 2hrs followed by IL1-beta stimulation and measured after overnight incubation by LANCE assay; type: functional, cell-based; conditions: Chondrocyte

SMILES	pEC50 [1]	pEC50 [2]	pEC50 [3]	Emax at 0.01 µM [4] [%]	pEC50 [5]
CC(C)(C)CC(=O)Nc1cncc(-c2ccc3[nH]nc(-c4nc5ccncc5[nH]4)c3n2)c1	8.00	< 5.00	7.68	54.1	
O=C(Nc1cncc(-c2ccc3[nH]nc(-c4nc5c(-c6ccccc6F)ccnc5[nH]4)c3n2)c1)C(F)(F)F	8.00	< 5.00	7.07	74	
c1cc(-c2cncc3[nH]c(-c4n[nH]c5ccc(-c6cncc(CN7CCCCC7)c6)nc45)cc23)ccn1	8.00	< 5.00	7.70	97.1	
CC(C)C(=O)Nc1cncc(-c2cc3c(-c4cc5c(N6CCN(C)CC6)cccc5[nH]4)n[nH]c3cn2)c1		6.15	7.59	36.4	
CS(=O)(=O)NCc1cc(F)cc(-c2nccc3[nH]c(-c4n[nH]c5ccc(-c6cncc(NC(=O)Cc7ccccc7)c6)nc45)cc23)c1	8.00	< 5.00	7.00	110	
CN1CCN(c2ccnc3[nH]c(-c4n[nH]c5ccc(-c6cncc(N)c6)nc45)nc23)CC1		< 5.00	7.03	46.9	
CS(=O)(=O)NCc1cc(F)cc(-c2cncc3[nH]c(-c4n[nH]c5ccc(-c6cncc(NC(=O)C7CC7)c6)nc45)cc23)c1	8.00	5.88	7.28	82.9	
CN1CCN(c2cncc3[nH]c(-c4n[nH]c5ccc(-c6cncc(N)c6)nc45)nc23)CC1	7.52	< 5.00	8.05	64.6	
c1ccc(CNCc2cncc(-c3ccc4[nH]nc(-c5cc6c(-c7cccs7)cncc6[nH]5)c4c3)c2)cc1	8.00	6.24	7.20	57.4	
CCNCc1cncc(-c2ccc3[nH]nc(-c4cc5cccnc5[nH]4)c3n2)c1	8.00	5.42	7.54	79.9	
FC1(F)CCN(Cc2cncc(-c3cc4c(-c5cc6cccnc6[nH]5)n[nH]c4cn3)c2)C1		5.87	7.92	45.3	
CCC(=O)Nc1cncc(-c2ccc3[nH]nc(-c4cc5c(-c6cccc(F)c6)nccc5[nH]4)c3c2)c1		7.35	7.74	16.2	
O=C(Nc1cncc(-c2ccc3[nH]nc(-c4nc5c(-c6ccc(Cl)s6)nccc5[nH]4)c3n2)c1)C1CCC1	7.52	6.08	7.04	60.2	
Fc1ccc(-c2cncc3[nH]c(-c4n[nH]c5ncc(-c6cncnc6)cc45)cc23)cc1		6.23	7.68	23.8	
COc1cncc(C(=O)Nc2c[nH]nc2C(=O)Nc2ccc(N3CCNCC3)nc2)c1		6.17	8.15	90.7	
CCCC(=O)Nc1cncc(-c2cnc3[nH]nc(-c4cc5c(-c6cc(F)cc(CNS(C)(=O)=O)c6)cncc5[nH]4)c3c2)c1		5.77	7.85	36.7	
c1cc(-c2ccoc2)c2cc(-c3n[nH]c4ccc(-c5cncc(CNCC6CCCC6)c5)nc34)[nH]c2c1		5.44	7.23	25.3	
CCCCC(=O)Nc1cncc(-c2ccc3[nH]nc(-c4cc5cccnc5[nH]4)c3c2)c1		6.49	7.77	34.1	
CC(C)CC(=O)Nc1cncc(-c2ccc3[nH]nc(-c4cc5c(N6CCN(C)CC6)ccnc5[nH]4)c3n2)c1		5.46	8.30	49.5	
CC(C)CC(=O)Nc1cncc(-c2ccc3[nH]nc(-c4nc5c(-c6cccs6)cncc5[nH]4)c3c2)c1		10.00	7.72	53.3	
CN1CCN(c2nccc3[nH]c(-c4n[nH]c5cnc(-c6cncc(N)c6)cc45)cc23)CC1		< 5.00	7.80	49.8	
CS(=O)(=O)NCc1cc(F)cc(-c2cncc3[nH]c(-c4n[nH]c5cnc(-c6cncc(NC(=O)C7CCC7)c6)cc45)cc23)c1		< 5.00	7.49	15.5	
CC(C)Nc1cncc(-c2ccc3[nH]nc(-c4nc5c(-c6ccccc6F)cncc5[nH]4)c3c2)c1		9.00	7.44	56.8	
CC(C)CC(=O)Nc1cncc(-c2ccc3[nH]nc(-c4nc5c(-c6cc(F)cc(NCCN(C)C)c6)cncc5[nH]4)c3c2)c1		7.66	8.00	82	
O=C(Nc1cncc(-c2ccc3[nH]nc(-c4cc5c(-c6ccccc6F)nccc5[nH]4)c3n2)c1)C1CC1		6.19	7.34	24.8	
CC(C)CC(=O)Nc1cncc(-c2cnc3[nH]nc(-c4cc5c(-c6cccnc6)ccnc5[nH]4)c3c2)c1		< 5.00	8.30	43.5	
CS(=O)(=O)NCc1cc(F)cc(-c2cncc3[nH]c(-c4n[nH]c5ncc(-c6cncc(CN7CCCCC7)c6)cc45)cc23)c1		5.73	7.68	22.7	

SMILES	pEC50 [1]	pEC50 [2]	pEC50 [3]	Emax at 0.01 µM [4] [%]	pEC50 [5]
O=C(Nc1cncc(-c2ccc3[nH]nc(-c4cc5c(-c6cccnc6)cncc5[nH]4)c3c2)c1)C1CCCC1		5.87	7.62	45.5	
c1cncc(-c2cnc3[nH]nc(-c4cc5cccnc5[nH]4)c3c2)c1		5.97	8.05	11	
CN1CCC(Oc2ccc(NC(=O)c3n[nH]c4ccc(-c5ccc(N)nc5)cc34)cc2)CC1		6.32	8.40		8.31
O=C(CC1CCNCC1)Nc1cncc(-c2cc3c(-c4nc5c(-c6cccc(F)c6)ccnc5[nH]4)n[nH]c3cn2)c1		6.46	8.30	54.7	
Cc1ncc(-c2ccc3cnc(NC(=O)C4(F)CC4)cc3c2)n1C		5.66	8.22		7.73
Cc1n[nH]c2ccc(-c3cncc(OCC4(F)CNC4)n3)cc12		5.49	7.60		7.46
O=C(CC1CCNCC1)Nc1cncc(-c2ccc3[nH]nc(-c4nc5c(-c6ccsc6)nccc5[nH]4)c3n2)c1		< 5.00	8.00		5.52
c1cncc(-c2cc3c(-c4nc5c(-c6cccnc6)nccc5[nH]4)n[nH]c3cn2)c1		7.55	7.54	44.5	
c1cncc(-c2ccc3[nH]nc(-c4cc5c(-c6cccnc6)ccnc5[nH]4)c3c2)c1		< 5.00	7.47	16.7	
CN(C)Cc1cncc(-c2ccc3[nH]nc(-c4nc5c(-c6cccc(F)c6)cncc5[nH]4)c3n2)c1		5.98	7.21	16.7	
O=C(Nc1cncc(-c2cc3c(-c4nc5c(-c6cccs6)nccc5[nH]4)n[nH]c3cn2)c1)C1CC1		7.65	7.46	68.3	
CCCCC(=O)Nc1cncc(-c2cc3c(-c4cc5cnccc5[nH]4)n[nH]c3cn2)c1		5.45	8.70	49.9	
CN1CCC(Nc2cc(C(=O)Nc3cc4cc(-c5cnn(C)c5)ccc4cn3)ccn2)CC1		7.18	8.70		5.52
CC(C)CC(=O)Nc1cncc(-c2ccc3[nH]nc(-c4cc5c(-c6cc(F)cc(CNS(C)(=O)=O)c6)nccc5[nH]4)c3n2)c1		6.32	7.85	33.1	
CN1CCC(Oc2ccc(NC(=O)c3n[nH]c4cc(F)c(-c5cnn(C)c5)cc34)cn2)CC1		6.92	9.00		5.97
FC1(F)CCN(Cc2cncc(-c3cnc4[nH]nc(-c5nc6c(-c7ccoc7)nccc6[nH]5)c4c3)c2)C1		6.79	8.00		10.00
Cc1cc(-c2ccc3[nH]nc(C(=O)Nc4ccc(OC5CCN(C)CC5)cc4)c3c2)sn1		6.19	8.52		7.35
CN(C)Cc1cncc(-c2ccc3[nH]nc(-c4cc5cccnc5[nH]4)c3n2)c1		< 5.00	7.38	37	
Cc1n[nH]c2ccc(-c3cncc(OC[C@@H]4Cc5ccccc5CN4)n3)cc12		5.55	7.25		5.52
O=C(Nc1cccnc1)c1n[nH]c2ccc(-c3cncc(CN4CC(CO)(CO)C4)c3)cc12		< 5.00	8.70		7.16
CC#CC(=O)Nc1cc2cc(-c3cnn(C)c3)ccc2cn1		6.29	8.22		7.48
CCNCc1cncc(-c2cnc3[nH]nc(-c4nc5c(-c6cccc(F)c6)cccc5[nH]4)c3c2)c1		7.39	7.32	98.7	
CC(C)n1cc(C(=O)Nc2cc3cc(-c4cncc(NC5CCN(C)CC5)n4)ncc3cn2)cn1		6.78	9.00		5.52
O=C(Nc1ccc(OC(CO)CO)nc1)c1n[nH]c2ccc(-c3cncc(CN4CCCCC4)c3)cc12		6.30	8.40		6.52
O=C(Nc1cncc(-c2ccc3[nH]nc(-c4nc5c(-c6ccccc6F)cccc5[nH]4)c3n2)c1)C(F)(F)F		6.08	7.52	40.1	
CC(C)CC(=O)Nc1cncc(-c2cc3c(-c4nc5c(-c6ccoc6)cccc5[nH]4)n[nH]c3cn2)c1		7.26	7.42	58	
CN(C)Cc1cncc(-c2ccc3[nH]nc(-c4cc5c(-c6cccnc6)cccc5[nH]4)c3n2)c1		6.38	7.09	35.9	
